# Test results taken from the supplement of paper PMC10307832.
# How the values were obtained:
# Experiment in all cases: relative viability (nuclei count vs DMSO), 5 days (fraction); higher = more cells survive
# [1] = compound: CN(C)CC1=CC(=CC=C1)N=C(C2=CC=CC=C2)C3=C(NC4=C3C=CC(=C4)C(=O)N(C)C)O + CC(C)C[C@H](NC(=O)[C@H](Cc1ccccc1)NC(=O)c1cnccn1)B(O)O [Bortezomib] (partner 0.002 µM)
# In short: (§1)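 Relative viability was taken as the ratio of nuclei in treated wells to nuclei in vehicle wells. Lung cancer cell lines in 1536-well plates received compounds by pin tool one day after seeding, either one drug alone or a fixed anchor-drug dose plus five library-drug doses (not always all listed) in √10 steps. Nuclei were counted on 4× images after 5 days of treatment, and values are medians of duplicate plates.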
# [2] = compound: CN(C)CC1=CC(=CC=C1)N=C(C2=CC=CC=C2)C3=C(NC4=C3C=CC(=C4)C(=O)N(C)C)O + CC1(C)CCC(c2ccc(Cl)cc2)=C(CN2CCN(c3ccc(C(=O)NS(=O)(=O)c4ccc(N[C@H](CCN5CCOCC5)CSc5ccccc5)c(S(=O)(=O)C(F)(F)F)c4)cc3)CC2)C1 [Navitoclax] (partner 0.5 µM)
# In short: as §1
# [3] = compound: CN(C)CC1=CC(=CC=C1)N=C(C2=CC=CC=C2)C3=C(NC4=C3C=CC(=C4)C(=O)N(C)C)O + CCNC(=O)c1noc(-c2cc(C(C)C)c(O)cc2O)c1-c1ccc(CN2CCOCC2)cc1 [Luminespib] (partner 0.01 µM)
# In short: as §1
# [4] = compound: CN(C)CC1=CC(=CC=C1)N=C(C2=CC=CC=C2)C3=C(NC4=C3C=CC(=C4)C(=O)N(C)C)O + Cc1nc(Nc2ncc(C(=O)Nc3c(C)cccc3Cl)s2)cc(N2CCN(CCO)CC2)n1 [Dasatinib] (partner 0.075 µM)
# In short: as §1
Cell Line,relative viability ([1]; first compound 0.253 µM),relative viability ([1]; first compound 0.8 µM),relative viability ([1]; first compound 8 µM),relative viability ([2]; first compound 0.08 µM),relative viability ([2]; first compound 0.253 µM),relative viability ([2]; first compound 0.8 µM),relative viability ([2]; first compound 2.53 µM),relative viability ([2]; first compound 8 µM),relative viability ([3]; first compound 0.08 µM),relative viability ([3]; first compound 0.253 µM),relative viability ([3]; first compound 0.8 µM),relative viability ([3]; first compound 2.53 µM),relative viability ([3]; first compound 8 µM),relative viability ([4]; first compound 0.08 µM),relative viability ([4]; first compound 0.253 µM),relative viability ([4]; first compound 0.8 µM),relative viability ([4]; first compound 2.53 µM),relative viability ([4]; first compound 8 µM),relative viability ([1]; first compound 0.08 µM),relative viability ([1]; first compound 2.53 µM)
CAL-12T,1.02,1.03,1.08,1.11,1.32,1.21,0.963,1.25,0.27,0.451,0.877,0.542,0.376,0.488,0.48,0.421,0.363,0.304,–,–
COR-L23,1.06,0.991,0.904,1.02,1.07,1.07,0.77,0.791,0.752,0.787,0.791,0.523,0.665,0.54,0.469,0.596,0.423,0.566,0.99,0.958
COR-L 105,0.889,0.586,0.753,0.664,0.795,0.762,0.733,0.562,0.865,0.688,0.567,1.23,0.622,0.394,0.369,0.307,0.314,0.328,0.767,0.761
Calu-6,1.06,1.05,1.06,0.815,0.831,0.963,0.888,0.928,–,–,–,–,–,–,–,–,–,–,1.02,1.13
ChaGo-K-1,1.1,1.03,1.12,1.16,1.17,1.27,–,1,0.688,0.612,0.668,0.529,0.598,0.579,0.61,0.601,0.567,0.582,0.986,–
